From publication PMC7793009 (ACS infectious diseases, 2020)
Read-outs that look alike come from different tables or passages of the source.

Assays:
[1] = tested on: tBHQ-induced ARE activity; assay: cells; type: cell-based; conditions: read-out: ARE/GFP/tBHQ IC50
p62-induced ARE activity = assay: cells; type: cell-based; conditions: read-out: ARE/p62 IC50
[2] = tested on: ARE activity induced by over-expression of Nrf2; assay: cells; type: cell-based; conditions: for IC50: read-out: ARE/Nrf2 IC50
[3] = target: constitutively expressed firefly luciferase (ce-FF) (Photinus pyralis, UniProt P08659); assay: cell-based; type: cell-based
NF-κB = assay: cells; type: cell-based; conditions: read-out: NF-κB IC50
HEK293T cells = conditions: 24 h, ATP content (CellTiter-Glo)
endogenous Nrf2 = type: cell-based
[4] = tested on: mVP24-induced ARE activity; assay: siRNA; type: cell-based; conditions: two p53 siRNAs vs scramble, mVP24/ARE HEK293T, 24 h treatment
[5] = tested on: mVP24-induced ARE activity; assay: ARE/mVP24 firefly luciferase reporter assay; type: cell-based; conditions: plateau around 1 μM of compound
Flag-tagged mVP24 = type: cell-based, Marburg virus
in vitro = conditions: human

Sequence of constitutively expressed firefly luciferase (ce-FF) (P08659 whole entry): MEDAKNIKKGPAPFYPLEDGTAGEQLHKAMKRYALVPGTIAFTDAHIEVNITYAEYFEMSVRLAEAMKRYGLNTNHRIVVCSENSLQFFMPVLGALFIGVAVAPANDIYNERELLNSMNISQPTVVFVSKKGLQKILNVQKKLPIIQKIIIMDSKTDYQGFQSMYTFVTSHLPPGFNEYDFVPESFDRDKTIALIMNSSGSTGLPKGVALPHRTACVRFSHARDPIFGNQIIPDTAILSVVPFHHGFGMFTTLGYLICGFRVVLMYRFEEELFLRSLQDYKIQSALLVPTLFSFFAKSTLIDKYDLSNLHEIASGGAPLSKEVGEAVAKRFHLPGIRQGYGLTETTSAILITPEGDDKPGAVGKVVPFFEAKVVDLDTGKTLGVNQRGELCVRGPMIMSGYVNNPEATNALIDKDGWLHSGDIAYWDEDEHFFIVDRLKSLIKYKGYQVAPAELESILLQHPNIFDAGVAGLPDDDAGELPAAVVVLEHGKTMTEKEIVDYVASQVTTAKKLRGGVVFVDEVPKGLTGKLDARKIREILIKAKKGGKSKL

## Nc1ncnc2c1c(I)cn2[C@@H]1O[C@H](CO)[C@@H](O)[C@H]1O [5-iodotubercidin]
[1]
  IC50: 0.2 µM
p62-induced ARE activity
  IC50: 0.058 µM
[2]
  IC50: 1.2 µM
[3]; read-out: Ce-FF IC50
  IC50: 15 µM
NF-κB
  IC50: 6.5 µM
HEK293T cells
  CC50: > 50 µM

## O=C(N[C@@H]1CCCc2c1[nH]c1ccc(Cl)cc21)c1ccccn1 [GSK983]
Endogenous Nrf2
  Nrf2 expression relative to DMSO control: decreased
[4]
  effect of p53 knockdown on inhibition of mVP24-induced ARE activity: did not result in a reversal of inhibition

## COc1cc([C@@H]2c3cc4c(cc3[C@H](O)[C@H]3COC(=O)[C@H]23)OCO4)cc(OC)c1OC [Podophyllotoxin, podophyllotoxin]
[5]
  plateau of inhibitory activity against mVP24-induced ARE activity: approximately 80%
[1]; Homo sapiens, HEK-293T, 24 h
  IC50: 0.026 µM
p62-induced ARE activity; Homo sapiens, HEK-293T, 24 h
  IC50: 3.1 µM
[2]; ARE/Nrf2 assay
  inhibition of ARE activity following over-expression of Nrf2 (in words): did not inhibit
[2]; Homo sapiens, HEK-293T, 24 h
  IC50: > 50 µM
[3]
  IC50: > 50 µM
NF-κB; Homo sapiens, HEK-293T, 6 h
  IC50: > 50 µM
Flag-tagged mVP24
  mVP24 expression relative to DMSO control: affected
Endogenous Nrf2; ARE/mVP24 HEK293T cells, 1 and 5 μM, 24 h, western blot
  Nrf2 expression relative to DMSO control: affected
In vitro
  CC50 at 24 h: > 50 µM
